Some test systems named below: BT-549; MOLT-4; NCI-H522; SF-268; K562; SNB-19; Hs-578T; HL-60; NCI-H23; UACC-62; HCT-116; ACHN; A549; MDA-MB-435; HOP-62; MCF7; SNB-75; NCI/ADR-RES; SF-295; OVCAR-5.
Common to all, as to test: NCI anticancer screen, dose series, 48 h

Each structure is given as a SMILES string.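 Tested at 5 concentrations; 48 h exposure; 96-well plates; endpoints linearly interpolated, else capped at highest concentration. The concentration for 50% growth inhibition is given as GI50.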 Calls of active or inactive are those of the source. Rule as the data show it: active = GI50 up to about 1.1 µM and inactive = higher.

As to `COc1cc(/C=C\c2nnc(/C=C\c3ccc(O)c(OC)c3)s2)ccc1O`, the GI50 in the assay on BT-549 was 1.89 µM (inactive); in the assay with MOLT-4, 1.74 µM (inactive); in the assay with NCI-H522 it was 1.67 µM (inactive); in the assay with SF-268 it was 4.06 µM (inactive); with K562 it was 1.77 µM (inactive); in the assay with SNB-19, 4.58 µM (inactive). The GI50 in the assay on Hs-578T was 3.01 µM (inactive); in the assay on HL-60, 1.64 µM (inactive); in the assay with NCI-H23, 2.45 µM (inactive); with UACC-62 it was 2.48 µM (inactive); in the assay with HCT-116 it was 2.36 µM (inactive); in the assay with ACHN, 3.61 µM (inactive). The GI50 in the assay on A549 is 3.13 µM (inactive); in the assay on MDA-MB-435, 0.495 µM (active); in the assay on HOP-62 it was 5.65 µM (inactive); in the assay with MCF7, 0.69 µM (active); in the assay with SNB-75 it was 2.33 µM (inactive); with NCI/ADR-RES it was 1.6 µM (inactive). Also, the GI50 in the assay with SF-295 was 3.48 µM (inactive); with OVCAR-5, 22.2 µM (inactive).
Regarding `NCCCC(N)C(=O)O` (configuration not stated), the GI50 in the assay on BT-549, in the assay with MOLT-4, with NCI-H522, in the assay on SF-268, in the assay on K562 and in the assay with SNB-19 was > 100 µM (inactive) in each case. Besides, the GI50 in the assay on Hs-578T, in the assay with HL-60, in the assay with NCI-H23, in the assay with UACC-62, with HCT-116 and in the assay on ACHN was > 100 µM (inactive) in each case. Further, the GI50 in the assay on A549, in the assay with MDA-MB-435, in the assay on HOP-62, in the assay on MCF7, in the assay with SNB-75 and with NCI/ADR-RES was > 100 µM (inactive) each time. Besides, the GI50 with SF-295 and in the assay on OVCAR-5 was > 100 µM (inactive) each time.
Turning to `CN(C)c1ncnc2c1ncn2C1C=CC(COS(N)(=O)=O)C1` (configuration not stated), the GI50 is > 100 µM (inactive) with BT-549; > 100 µM (inactive) in the assay on MOLT-4; 47.2 µM (inactive) in the assay on NCI-H522; > 100 µM (inactive) in the assay on SF-268; 82.4 µM (inactive) in the assay on K562; > 100 µM (inactive) in the assay on SNB-19. Also, the GI50 with Hs-578T is 44.5 µM (inactive); in the assay on HL-60 it was > 100 µM (inactive); in the assay with NCI-H23 it was 80.9 µM (inactive); with UACC-62, > 100 µM (inactive); with HCT-116, > 100 µM (inactive); in the assay on ACHN, > 100 µM (inactive). Also, the GI50 in the assay on A549, in the assay with MDA-MB-435, with HOP-62, in the assay on MCF7, in the assay on SNB-75 and with NCI/ADR-RES was > 100 µM (inactive) each time. The GI50 in the assay on SF-295 is > 100 µM (inactive).
Consider `Oc1ccc(Cc2cc(Cc3ccc(O)cc3)cc(Cc3ccc(O)cc3)c2)cc1`, for which the GI50 with BT-549, in the assay on MOLT-4, in the assay on NCI-H522, with SF-268, in the assay on K562 and in the assay on SNB-19 was > 50 µM (inactive) in each case. The GI50 with Hs-578T, in the assay on HL-60, in the assay with UACC-62, with HCT-116, in the assay on ACHN and in the assay with A549 was > 50 µM (inactive) each time. Besides, the GI50 in the assay on MDA-MB-435, in the assay with HOP-62, with MCF7, in the assay on SNB-75, in the assay with NCI/ADR-RES and with SF-295 was > 50 µM (inactive) throughout. Further, the GI50 with OVCAR-5 is > 50 µM (inactive).
With `CN(/N=C\c1ccc2ccccc2c1)C1=NCCCN1`, the GI50 is 1.87 µM (inactive) in the assay on BT-549; 2.39 µM (inactive) in the assay with MOLT-4; 13.8 µM (inactive) with NCI-H522; 13.8 µM (inactive) in the assay on SF-268; 11.7 µM (inactive) in the assay on K562; 10.7 µM (inactive) with Hs-578T. The GI50 was 8.71 µM (inactive) in the assay with HL-60; 25.9 µM (inactive) with NCI-H23; 14.2 µM (inactive) in the assay on UACC-62; 13.8 µM (inactive) in the assay on HCT-116; 13.3 µM (inactive) in the assay with ACHN; 8.18 µM (inactive) with A549. In addition, the GI50 is 15.2 µM (inactive) in the assay with MDA-MB-435; 12.1 µM (inactive) in the assay with HOP-62; 3.56 µM (inactive) in the assay with MCF7; 13.3 µM (inactive) in the assay with SNB-75; 19.5 µM (inactive) in the assay on NCI/ADR-RES; 11.9 µM (inactive) in the assay with SF-295. In addition, the GI50 in the assay on OVCAR-5 was 28.1 µM (inactive).
For the compound `C=C1CCC2CC1C(C(=O)c1c[nH]c3ccccc13)=NC2(C)C` (configuration not stated), the GI50 in the assay with BT-549 is > 100 µM (inactive); in the assay on MOLT-4, > 100 µM (inactive); in the assay with NCI-H522, > 100 µM (inactive); in the assay on SF-268 it was > 100 µM (inactive); in the assay on K562, 92.7 µM (inactive); in the assay on SNB-19 it was > 100 µM (inactive). Further, the GI50 in the assay with Hs-578T, in the assay with HL-60, in the assay on NCI-H23, in the assay with UACC-62, in the assay on HCT-116 and in the assay on ACHN was > 100 µM (inactive) each time. The GI50 in the assay on A549, with MDA-MB-435, in the assay with HOP-62, in the assay on MCF7, with SNB-75 and in the assay on NCI/ADR-RES was > 100 µM (inactive) in each case. Besides, in the assay with OVCAR-5, the GI50 is > 100 µM (inactive).
Consider `Cc1ccc(C)c(NC(=O)NCc2ccc(Cl)cc2)c1`, for which the GI50 with BT-549 is > 100 µM (inactive); in the assay with NCI-H522 it was 24.9 µM (inactive); in the assay with SF-268, 38.9 µM (inactive); in the assay on K562 it was 47.5 µM (inactive); in the assay with SNB-19, > 23.3 µM (inactive); with Hs-578T it was 25.5 µM (inactive). Also, the GI50 with HL-60 is > 100 µM (inactive); in the assay with NCI-H23, 35.7 µM (inactive); with UACC-62 it was > 100 µM (inactive); with HCT-116, 35.3 µM (inactive); with ACHN it was 20.5 µM (inactive); with A549, > 100 µM (inactive). The GI50 is > 100 µM (inactive) with MDA-MB-435; 9.31 µM (inactive) in the assay on HOP-62; 50.2 µM (inactive) with MCF7; 2.24 µM (inactive) in the assay on SNB-75; > 58.1 µM (inactive) in the assay on NCI/ADR-RES; 16.7 µM (inactive) in the assay with SF-295. In addition, the GI50 in the assay with OVCAR-5 is 56.1 µM (inactive).
For the compound `Cc1cc(=O)oc2c(OS(C)(=O)=O)c(OS(C)(=O)=O)ccc12`, the GI50 with BT-549, in the assay with MOLT-4, with NCI-H522, in the assay with SF-268, with K562 and in the assay on SNB-19 was > 100 µM (inactive) throughout. Besides, the GI50 in the assay with Hs-578T, with HL-60, in the assay with NCI-H23, in the assay with UACC-62, in the assay on HCT-116 and in the assay on ACHN was > 100 µM (inactive) in each case. The GI50 in the assay with A549, in the assay with MDA-MB-435, in the assay on HOP-62, in the assay with MCF7, in the assay on NCI/ADR-RES and with SF-295 was > 100 µM (inactive) throughout. In the assay on OVCAR-5, the GI50 was > 100 µM (inactive).
Regarding `CC1=[N+](C)CCCN1C`, the GI50 in the assay on BT-549, in the assay with MOLT-4, in the assay with NCI-H522, in the assay with SF-268, in the assay with K562 and with SNB-19 was > 100 µM (inactive) throughout. Further, the GI50 in the assay on Hs-578T, in the assay on HL-60, in the assay on NCI-H23, in the assay on HCT-116, in the assay with ACHN and with A549 was > 100 µM (inactive) each time. Also, the GI50 in the assay on MDA-MB-435, with HOP-62, in the assay on MCF7, in the assay with SNB-75, with NCI/ADR-RES and in the assay on SF-295 was > 100 µM (inactive) in each case. For the same compound, the GI50 in the assay with OVCAR-5 was > 100 µM (inactive).
As to `COc1cc2c(cc1O)CC[n+]1cc3c(OC)c(OC)ccc3cc1-2`, the GI50 in the assay on BT-549 was 47.3 µM (inactive); in the assay on MOLT-4 it was > 100 µM (inactive); in the assay with NCI-H522, > 100 µM (inactive); with SF-268, > 100 µM (inactive); in the assay on K562, 75 µM (inactive); in the assay with SNB-19, 60.1 µM (inactive). Moreover, the GI50 is > 100 µM (inactive) with Hs-578T; > 100 µM (inactive) with HL-60; 62.5 µM (inactive) in the assay on NCI-H23; > 100 µM (inactive) with UACC-62; > 100 µM (inactive) in the assay with HCT-116; > 100 µM (inactive) in the assay on ACHN. The GI50 in the assay with A549, in the assay with MDA-MB-435, with MCF7, in the assay on SNB-75, in the assay with NCI/ADR-RES and in the assay on SF-295 was > 100 µM (inactive) in each case. Besides, the GI50 in the assay with OVCAR-5 was > 100 µM (inactive).

Values taken from ChEMBL document CHEMBL1201862, “PubChem BioAssay data set” (2004).
